{"source": "paper PMC10283505", "about": "“CVM-1118 (foslinanib), a 2-phenyl-4-quinolone derivative, promotes apoptosis and inhibits vasculogenic mimicry via targeting TRAP1” (Pathology and Oncology Research, 2023)", "key": {"Smad2/P-Smad2": {"test_system": "Smad2/P-Smad2", "test": "Western blot of P-Smad2/Smad2", "assay_type": "cell-based, human", "details": "C8161, 10 nM, 24 h, relative to β-actin, against control", "procedure": "Cells at 80% confluence were rinsed with PBS, harvested by scrapping into a modified RIPA buffer plus protease inhibitor cocktail using 100 μL buffer per 1 × 10^6 cells. After sonication and centrifugation, the protein concentrations in the supernatants were determined using a BCA assay (Thermo Fisher Scientific). […] Nodal was detected using a mouse monoclonal anti-Nodal antibody (sc-373910; Santa Cruz; 1 μg/ml in 20 mM Tris/150 mM NaCl/0.1% [w/v] Tween 20, pH 7.4 [TBST] plus 5% BSA) followed by an anti-mouse plus horseradish peroxidase (HRP) secondary antibody (NXA931; GE Healthcare; 1 μg/ml in TBST plus 5% BSA) and enhanced chemiluminescence (ECL; GE Healthcare). Smad2 was detected using a rabbit polyclonal anti-Smad2/3 antibody (07-408; Millipore; 1 μg/ml in TBST plus 5% BSA) followed by an anti-rabbit plus HRP secondary antibody (NA934V; GE Healthcare; 1 μg/ml in TBST plus 5% BSA) and ECL. […] To assess relative changes in protein expression, the exposed films were digitized using a ChemiDoc XRS imager (Bio-Rad Laboratories) and the relative amount of protein determined against the untreated control cells normalized to a value of 1.0 using the imager’s Quantity One software package (Bio-Rad Laboratories) and corrected for loading of protein into each lane against the β-actin protein measured in the control lane."}, "U251": {"test_system": "U251", "test": "NCI 60 cytotoxicity screening", "assay_type": "cell-based", "details": "Homo sapiens, U-251; U251, CNS"}, "DU-145": {"test_system": "DU-145", "test": "NCI 60 cytotoxicity screening", "assay_type": "cell-based", "details": "Homo sapiens; DU-145, Prostate"}, "SNB-75": {"test_system": "SNB-75", "test": "NCI 60 cytotoxicity screening", "assay_type": "cell-based", "details": "Homo sapiens; SNB-75, CNS"}, "HT29": {"test_system": "HT29", "test": "NCI 60 cytotoxicity screening", "assay_type": "cell-based", "details": "Homo sapiens, HT-29; HT29, Colon"}, "T-47D": {"test_system": "T-47D", "test": "NCI 60 cytotoxicity screening", "assay_type": "cell-based", "details": "Homo sapiens, T47D, Breast"}, "UACC-257": {"test_system": "UACC-257", "test": "NCI 60 cytotoxicity screening", "assay_type": "cell-based", "details": "Homo sapiens; UACC-257, Melanoma"}, "TGFβig-h3": {"biological_target": "T1, TGFβig-h3 (Homo sapiens, UniProt Q15582)", "T1 sequence (Q15582 24-683)": "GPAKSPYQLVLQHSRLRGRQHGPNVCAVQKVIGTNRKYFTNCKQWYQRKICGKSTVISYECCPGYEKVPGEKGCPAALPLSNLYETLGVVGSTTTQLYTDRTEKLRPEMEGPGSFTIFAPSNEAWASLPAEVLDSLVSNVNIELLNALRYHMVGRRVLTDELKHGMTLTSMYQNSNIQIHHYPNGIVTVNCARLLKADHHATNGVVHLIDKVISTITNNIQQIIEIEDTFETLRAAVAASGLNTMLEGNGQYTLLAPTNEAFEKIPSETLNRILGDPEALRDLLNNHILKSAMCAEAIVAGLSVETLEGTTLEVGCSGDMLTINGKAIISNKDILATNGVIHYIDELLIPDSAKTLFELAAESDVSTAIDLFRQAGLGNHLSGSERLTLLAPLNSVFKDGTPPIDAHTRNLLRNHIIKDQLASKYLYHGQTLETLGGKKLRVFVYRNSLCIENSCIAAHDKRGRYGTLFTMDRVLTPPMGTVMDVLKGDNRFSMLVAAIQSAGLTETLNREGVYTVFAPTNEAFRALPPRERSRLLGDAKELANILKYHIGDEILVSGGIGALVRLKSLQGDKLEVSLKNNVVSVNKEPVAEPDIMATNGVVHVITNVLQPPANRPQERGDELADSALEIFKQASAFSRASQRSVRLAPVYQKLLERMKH", "test": "Surface plasmon resonance (Biacore)", "assay_type": "binding", "details": "TGFβig-h3, SPR"}}}
{"smiles": "COc1ccc2[nH]c(-c3cccc(F)c3)cc(=O)c2c1OP(=O)(O)O", "note": "[CVM-1118]", "values": [{"measurement": "reduction in the ratio of P-Smad2 to Smad2 protein level", "setting": "Smad2/P-Smad2", "result": 76, "unit": "%"}]}
{"smiles": "COc1ccc2[nH]c(-c3cccc(F)c3)cc(=O)c2c1O", "note": "[CVM-1125]", "values": [{"measurement": "GI50", "setting": "U251", "result": 42.9, "unit": "nM"}, {"measurement": "GI50", "setting": "DU-145", "result": 21.1, "unit": "nM"}, {"measurement": "GI50", "setting": "SNB-75", "result": 15, "unit": "nM"}, {"measurement": "GI50", "setting": "HT29", "result": 29, "unit": "nM"}, {"measurement": "GI50", "setting": "T-47D", "result": 28, "unit": "nM"}, {"measurement": "GI50", "setting": "UACC-257", "result": 33.7, "unit": "nM"}, {"measurement": "Association (ka)", "setting": "TGFβig-h3", "result": "No interaction"}, {"measurement": "Dissociation (kd)", "setting": "TGFβig-h3", "result": "No interaction"}, {"measurement": "KD (kd/ka)", "setting": "TGFβig-h3", "result": "No interaction"}]}
